# In US20170080049A1, “MEDICINE AGAINST GROWTH FAILURE INDUCED BY ADMINISTRATION OF STEROID” (DAIICHI SANKYO COMPANY, LIMITED, priority 2014, published 2017):
# Positions of bridges follow the written chain, without caps; N, C: chain ends. Residues, ends and D or L forms follow the SMILES beside them. No end group written: not given here.
# How the values were obtained:
# Format in all cases: in vivo
# [1] = tested on: dexamethasone-induced rat growth failure model; test: Combined administration study of human-type CNP-53 or various CNP derivatives in dexamethasone-induced rat growth failure model (Example 3); settings: for plasma cholesterol concentration and thymus weight vs single administration group of dexamethasone (in words): combined with dexamethasone, 28 days; for Plasma cholesterol concentration / thymus body weight ratio / thymus weight at dissection: dexamethasone 0.67 mg/mL pump alone or combined with 15 mg/mL pump of the CNP peptide, continuous s.c. 28 days, 5-week-old male Wistar rat, n=5
# Procedure: Osmotic pumps (MINI-OSMOTIC PUMP Model 2004, available from DURECT CORPORATION, flow rate: 0.25 μL/hr, for 28 days) were charged with 0.67 mg/mL solution of dexamethasone (dexamethasone injection “KS”, available from Kyoritsuseiyaku Corporation) and one osmotic pump was embedded in the hypoderm of the back of each 5-week-old male Crlj:WI (Wistar) rat (5 animals/group, Groups 2 to 6, a total of 25 animals). At the same time, one osmotic pump (the same as above) charged with a 15 mg/mL solution of CNP derivative (A) in Group 3, human-type CNP-53 in Group 4, CNP derivative (B) in Group 5 and CNP derivative (C) in Group 6 was embedded in the hypoderm of the back simultaneously. No substance was administered to the normal control group (Group 1, 5 animals). Then the animals were fed for 28 days, and transitions of the body weight, the body length and the tail length were measured. On the final day, the blood was collected from the abdominal aorta and the animals were caused to die under isoflurane anesthesia, and plasma was separated from the collected blood and the cholesterol concentration was determined by using a “LabAssay (trademark) cholesterol” (available from Wako Pure Chemical Industries, Ltd.). After collecting the blood and causing the animals to die, the right femur and thymus were extracted, and the length of the right femur and the weight of the thymus were measured.
# [2] = tested on: steroid-induced growth failure, male Crlj:WI (Wistar) rat; test: Simultaneous combined administration test of various steroids and CNP derivative (A) in rats (Example 5); settings: for Body length at dissection / Body length, variation from preadministration value (Δ value) / Body weight, variation from preadministration value (Δ value) / Right femur length at dissection / Tail length at dissection / Tail length, variation from preadministration value (Δ value) / Body weight at dissection: 1 mL/kg s.c. once a day 28 days, + medium or + CNP derivative (A) 1 mg/kg, n=5; for Body weight at dissection: 4-week-old male Wistar rat
# Procedure: 0.3 mg/mL solution of dexamethasone (dexamethasone injection “KS”, available from Kyoritsuseiyaku Corporation diluted with saline), prednisolone succinate suspended in 0.1% polysorbate-containing brine (available from Wako Pure Chemical Industries, Ltd., concentration of 5 mg/mL as prednisolone), or betamethasone dipropionate suspended in 0.1% polysorbate-containing brine (available from Wako Pure Chemical Industries, Ltd., concentration of 0.3 mg/mL as betamethasone) was administered to the hypoderm of the back of a 4-week-old male Crlj:WI (Wistar) rat (ten animals for each set of substances) in a volume of 1 mL/kg once a day for 28 days. No substance was administered to the control group (5 animals, Group 1). At the same time, for five of ten animals in each set (Group 2, Group 4, Group 6) a medium (0.03 mol/L acetate buffer (pH 4.0)/1% benzyl alcohol/10% sucrose) and for the remaining five animals (Group 3, Group 5, Group 7) the medium and a 1 mg/mL solution of CNP derivative (A) were administered in combination in the hypoderm of the back in a volume of 1 mL/kg once a day for 28 days. After measuring the body weight, the body length and the tail length under isoflurane anesthesia on the day after the final day of administration, blood was collected from the abdominal aorta and the animal was caused to die, the right femur was extracted and the femur length was measured.
# [3] = tested on: rat growth failure induced by dexamethasone; test: Action comparing study between CNP derivative (A) and human growth hormone on rat growth failure induced by dexamethasone (Example 6)
# Procedure: Osmotic pumps (MINI-OSMOTIC PUMP Model 2004, available from DURECT CORPORATION, flow rate: 0.25 μL/hr, for 28 days) were charged with a 0.67 mg/mL solution of dexamethasone (dexamethasone injection “KS”, available from Kyoritsuseiyaku Corporation), and one osmotic pump was embedded in the hypoderm of the back of each 4-week-old male Crlj:WI (Wistar) rat (5 animals/group, Group 2 to Group 4, total of 15 animals). For Group 3, a 1 mg/mL solution of CNP derivative (A) (medium: 0.03 mol/L acetate buffer (pH 4.0)/1% benzyl alcohol/10% sucrose), and for Group 4, a 1 mg/mL solution of human-type growth hormone preparation (somatropin BS subcutaneous injection 10 mg “SANDOZ”) diluted with a phosphate buffer was administered to the hypoderm of the back of five rats, respectively, in a volume of 2 mL/kg once a day for 28 days. No substance was administered to the normal control group (5 animals, Group 1). On the final day, after measuring the body weight, the body length and the tail length, the blood was collected from the abdominal aorta and the animal was caused to die under isoflurane anesthesia, the left femur was extracted and the bone length was measured, and then a histopathological specimen of the epiphyseal region was prepared.
# [4] = combined with dexamethasone, 28 days
# [5] = dexamethasone 0.67 mg/mL pump alone or with CNP derivative (A) or human-type growth hormone 1 mg/mL, 2 mL/kg s.c. once a day 28 days, n=4 or 5
compound,measurement,setting,value
DLRVDTKSRAAWARLLQEHPNARKYKGANKKGLSKGCFGLKLDRIGSMSGLGC (disulfide 37-53) [human-type CNP-53],plasma cholesterol concentration and thymus weight vs single administration group of dexamethasone (in words),[1],a clear difference was not observed
same,Plasma cholesterol concentration,[1],62.1 ± 2.2 ^NS mg/dL
same,thymus body weight ratio,[1],[0.11 ± 0.01% ^NS]
same,thymus weight at dissection,[1],0.33 ± 0.03 g
C[C@]12C=CC(=O)C=C1CC[C@@H]1[C@@H]2[C@@H](O)C[C@@]2(C)[C@H]1CC[C@]2(O)C(=O)COC(=O)CCC(=O)O [prednisolone succinate],Body length at dissection,[2]; prednisolone 5 mg/mL,209 ± 4 mm
same,"Body length, variation from preadministration value (Δ value)",[2]; prednisolone 5 mg/mL,(58 ± 4) mm
same,"Body weight, variation from preadministration value (Δ value)",[2]; prednisolone 5 mg/mL,(191 ± 14) g
same,Right femur length at dissection,[2]; prednisolone 5 mg/mL,33.3 ± 0.3 mm
same,Tail length at dissection,[2]; prednisolone 5 mg/mL,206 ± 6 mm
same,"Tail length, variation from preadministration value (Δ value)",[2]; prednisolone 5 mg/mL,(79 ± 9) mm
same,Body weight at dissection,[2]; prednisolone succinate (5 mg/mL as prednisolone),298 ± 14 g
same,growth failure in rats by repeated administration of the steroid for 28 days (in words),"[2]; s.c. once a day 28 days, body weight gain, body, tail and femur length, p<0.05 or 0.01",induce growth failure
"human-type growth hormone: human-type growth hormone preparation, existing therapeutic drug for dwarfism",elongation of the body length and the tail length vs dexamethasone-only administration group (in words),[3]; [4],no significant difference
same,left femur length on the final day vs dexamethasone-only administration group (in words),[3]; [4],No significant difference
same,Body weight at dissection,"[3]; dexamethasone 0.67 mg/mL pump 28 days alone or with CNP derivative (A) or human-type growth hormone 1 mg/mL, 2 mL/kg s.c. once a day 28 days, 4-week-old male Wistar rat, mean ± SD, n=4 or 5",255 ± 7 g
same,Body length at dissection,[3]; [5],199 ± 5 mm
same,"Body length, variation from pre-administration value (Δ value)",[3]; [5],(44.8 ± 3.7) mm
same,"Body weight, variation from pre-administration value (Δ value)",[3]; [5],(149 ± 3) g
same,Left femur length at dissection,[3]; [5],31.7 ± 0.6 mm
same,Tail length at dissection,[3]; [5],199 ± 3 mm
same,"Tail length, variation from pre-administration value (Δ value)",[3]; [5],(66.8 ± 5.0) mm
same,growth plate cartilage layer of the epiphyseal region of the left femur (in words),"[3]; histology, toluidine blue (FIG. 5), tendency, combinations compared with dexamethasone only",swelling
"CC[C@H](C)[C@@H]1NC(=O)[C@H](CCCNC(=N)N)NC(=O)[C@H](CC(=O)O)NC(=O)[C@H](CC(C)C)NC(=O)[C@H](CCCCN)NC(=O)[C@H](CC(C)C)NC(=O)CNC(=O)[C@H](Cc2ccccc2)NC(=O)[C@@H](NC(=O)CNC(=O)[C@H](CCCCN)NC(=O)[C@H](CO)NC(=O)[C@H](CC(C)C)NC(=O)CN)CSSC[C@@H](C(=O)N[C@H](C(=O)N[C@@H](CCC(N)=O)C(=O)N[C@@H](CCC(N)=O)C(=O)N[C@@H](CCCNC(=N)N)C(=O)N[C@@H](CCCCN)C(=O)N[C@@H](CCC(=O)O)C(=O)N[C@@H](CO)C(=O)N[C@@H](CCCCN)C(=O)N[C@@H](CCCCN)C(=O)N2CCC[C@H]2C(=O)N2CCC[C@H]2C(=O)N[C@@H](C)C(=O)N[C@@H](CCCCN)C(=O)N[C@@H](CC(C)C)C(=O)N[C@@H](CCC(N)=O)C(=O)N2CCC[C@H]2C(=O)N[C@@H](CCCNC(=N)N)C(=O)O)C(C)C)NC(=O)CNC(=O)[C@H](CC(C)C)NC(=O)CNC(=O)[C@H](CO)NC(=O)[C@H](CCSC)NC(=O)[C@H](CO)NC(=O)CNC1=O [CNP derivative (C), CNP (1-22) Ghrelin (12-28, SEQ ID NO: 8)] (H-GLSKGCFGLKLDRIGSMSGLGCVQQRKESKKPPAKLQPR-OH; disulfide 6-22)",plasma cholesterol concentration and thymus weight vs single administration group of dexamethasone (in words),[1],a clear difference was not observed
same,Plasma cholesterol concentration,[1],59.2 ± 7.4 ^NS mg/dL
same,thymus body weight ratio,[1],[0.11 ± 0.02% ^NS]
same,thymus weight at dissection,[1],0.35 ± 0.06 g
"CCC(=O)OCC(=O)[C@@]1(OC(=O)CC)[C@@H](C)C[C@H]2[C@@H]3CCC4=CC(=O)C=C[C@]4(C)[C@@]3(F)[C@@H](O)C[C@@]21C [Betamethasone, betamethasone dipropionate]",Body length at dissection,[2]; betamethasone 0.3 mg/mL,211 ± 2 mm
same,"Body length, variation from preadministration value (Δ value)",[2]; betamethasone 0.3 mg/mL,(59 ± 5) mm
same,"Body weight, variation from preadministration value (Δ value)",[2]; betamethasone 0.3 mg/mL,(208 ± 10) g
same,Right femur length at dissection,[2]; betamethasone 0.3 mg/mL,33.9 ± 0.5 mm
same,Tail length at dissection,[2]; betamethasone 0.3 mg/mL,213 ± 4 mm
same,"Tail length, variation from preadministration value (Δ value)",[2]; betamethasone 0.3 mg/mL,(82 ± 3) mm
same,Body weight at dissection,[2]; betamethasone dipropionate (0.3 mg/mL as betamethasone),315 ± 11 g
same,growth failure in rats by repeated administration of the steroid for 28 days (in words),"[2]; rat, in vivo, sc",induce growth failure
"CC[C@H](C)[C@@H]1NC(=O)[C@H](CCCNC(=N)N)NC(=O)[C@H](CC(=O)O)NC(=O)[C@H](CC(C)C)NC(=O)[C@H](CCCCN)NC(=O)[C@H](CC(C)C)NC(=O)CNC(=O)[C@H](Cc2ccccc2)NC(=O)[C@@H](NC(=O)CNC(=O)[C@H](CCCCN)NC(=O)[C@H](CO)NC(=O)[C@H](CC(C)C)NC(=O)CNC(=O)[C@H](CCCCN)NC(=O)[C@H](CCCCN)NC(=O)[C@H](CC(N)=O)NC(=O)[C@H](C)NC(=O)CNC(=O)[C@H](CCCCN)NC(=O)[C@H](Cc2ccc(O)cc2)NC(=O)[C@H](CCCCN)NC(=O)[C@H](CCCNC(=N)N)NC(=O)[C@H](C)NC(=O)[C@H](CC(N)=O)NC(=O)[C@@H]2CCCN2C(=O)[C@H](Cc2c[nH]cn2)NC(=O)[C@H](CCC(=O)O)NC(=O)[C@H](CCC(N)=O)NC(=O)CNC(=O)[C@@H]2CCCN2)CSSC[C@@H](C(=O)O)NC(=O)CNC(=O)[C@H](CC(C)C)NC(=O)CNC(=O)[C@H](CO)NC(=O)[C@H](CCSC)NC(=O)[C@H](CO)NC(=O)CNC1=O [CNP derivative (B), Pro-Gly-CNP-37]",plasma cholesterol concentration and thymus weight vs single administration group of dexamethasone (in words),[1],a clear difference was not observed
same,Plasma cholesterol concentration,[1],64.4 ± 0.8 ^NS mg/dL
same,thymus body weight ratio,[1],[0.14 ± 0.04%*]
same,thymus weight at dissection,[1],0.42 ± 0.14 g
